Test results taken from US10138292B2, “Cell culture medium” (BIOLAMINA AB, priority 2010, dated 2018).

Legend:
[1] = tested on: mouse ES cells; conditions: without LIF or feeder cells; cited from earlier work
[2] = tested on: human ES cells; conditions: teratomas after engraftment into SCID mice; cited from earlier work
[3] = tested on: human ES cells; experiment: Cell adhesion assay, 1 hour (Example 1); type: cell-based; conditions: O3 medium without any additives, without Y-27632
Experimental: (§1) Ninety-six-well tissue cell culture plates were coated overnight at 4° C. with sterile solutions of the ECM proteins mouse LN-111 (Invitrogen), human recombinant LN-511, and human recombinant LN-521, all at a concentration of 30 μg/ml (5 μg/cm^2). For control cells, BD Matrigel™ hESC qualified (BD Biosciences) was used according to the manufacturer's instructions.
(§2) The assay was performed as described (Extracellular Matrix Protocols, 2000). Briefly, 96-well plates were coated by extracellular matrix proteins as described above and blocked by O3 medium containing bovine serum albumin. The ES cells were plated at a cell density of 600 cell/mm^2 upon extracellular matrix-coated plates and were left to adhere for either 1 hour or 1 day at the cell incubator. Non-adherent cells were washed away, and adherent cells were fixed for 20 min by 5% glutaraldehyde, stained by 0.1% Crystal Violet.

[4] = tested on: human ES cells; experiment: Cell adhesion / single cell survival 1 day after plating (Example 1); type: cell-based; conditions: for cells remaining attached / surviving 24 hours after plating: completely dissociated H5181 cells, O3 medium without any additives, no ROCK inhibitor
Experimental: as §1, §2

[5] = tested on: hES cells; experiment: Cell adhesion assay, 1 hour (Example 2); type: cell-based, human; conditions: not shown
Experimental: Tissue cell culture plates were coated overnight at 4° C. with sterile solutions of the ECM proteins, such as human recombinant LN-521, all at a concentration of 30 μg/ml (5 μg/cm^2). Control plates were coated with Matrigel according to the STEMCELL Technologies' instructions. Prior to use, dishes were pre-warmed in an incubator for one hour after which prewarmed O3 medium was added without additional washing of the dish. After applying a fresh LN-521 solution to a new dish, the remaining LN-521 solution could be used at least once more. All the adhesion, survival, and inhibition of survival experiments were carried out using fresh coating materials.
Briefly, 96-well plates were coated by extracellular matrix proteins as described above and blocked by O3 medium containing bovine serum albumin. The ES cells were plated at cell density of 50,000 cells/cm^2 onto extracellular matrix-coated plates and left to adhere for 1 hour in a cell incubator. After that the plates were washed 3 times with the medium to remove the non-adherent cells, and then the adherent cells were fixed for 20 minutes by 5% glutaraldehyde, stained by 0.1% Crystal Violet. (Kebo Lab, Spanga, Sweden, http://www.kebolab.se). After one hour and 3 washes with water, Crystal Violet was extracted with 10% acetic acid and quantified by measuring optical density at 570 nm. All the experiments were performed in quadruplicate.

[6] = tested on: human embryonic stem cells; experiment: Survival of dissociated human embryonic stem cells one day after plating on precoated dishes; type: cell-based; conditions: single cell suspension, O3 medium, 30 Kcells/cm^2
Source text: In other aspects, the present disclosure provides a new material, isolated laminin-521, which permits human embryonic stem cell survival after dissociation into single cell suspension. The stem cells were dissociated into single cell suspension by Trypsin-EDTA treatment, pelleted by centrifugation, resuspended into O3 medium, filtered through a 40 μm sieve, and plated at a density of 30 Kcells/cm^2 on cell culture dishes precoated by either isolated laminin-521, laminin-511, or Matrigel. After one day in culture, the cells plated on Matrigel died, as is known in the art.

[7] = target: Integrin α6β1 (Homo sapiens, UniProt P05556+P23229); conditions: cited from earlier work
Sequence of Integrin α6β1 (P23229 24-1130): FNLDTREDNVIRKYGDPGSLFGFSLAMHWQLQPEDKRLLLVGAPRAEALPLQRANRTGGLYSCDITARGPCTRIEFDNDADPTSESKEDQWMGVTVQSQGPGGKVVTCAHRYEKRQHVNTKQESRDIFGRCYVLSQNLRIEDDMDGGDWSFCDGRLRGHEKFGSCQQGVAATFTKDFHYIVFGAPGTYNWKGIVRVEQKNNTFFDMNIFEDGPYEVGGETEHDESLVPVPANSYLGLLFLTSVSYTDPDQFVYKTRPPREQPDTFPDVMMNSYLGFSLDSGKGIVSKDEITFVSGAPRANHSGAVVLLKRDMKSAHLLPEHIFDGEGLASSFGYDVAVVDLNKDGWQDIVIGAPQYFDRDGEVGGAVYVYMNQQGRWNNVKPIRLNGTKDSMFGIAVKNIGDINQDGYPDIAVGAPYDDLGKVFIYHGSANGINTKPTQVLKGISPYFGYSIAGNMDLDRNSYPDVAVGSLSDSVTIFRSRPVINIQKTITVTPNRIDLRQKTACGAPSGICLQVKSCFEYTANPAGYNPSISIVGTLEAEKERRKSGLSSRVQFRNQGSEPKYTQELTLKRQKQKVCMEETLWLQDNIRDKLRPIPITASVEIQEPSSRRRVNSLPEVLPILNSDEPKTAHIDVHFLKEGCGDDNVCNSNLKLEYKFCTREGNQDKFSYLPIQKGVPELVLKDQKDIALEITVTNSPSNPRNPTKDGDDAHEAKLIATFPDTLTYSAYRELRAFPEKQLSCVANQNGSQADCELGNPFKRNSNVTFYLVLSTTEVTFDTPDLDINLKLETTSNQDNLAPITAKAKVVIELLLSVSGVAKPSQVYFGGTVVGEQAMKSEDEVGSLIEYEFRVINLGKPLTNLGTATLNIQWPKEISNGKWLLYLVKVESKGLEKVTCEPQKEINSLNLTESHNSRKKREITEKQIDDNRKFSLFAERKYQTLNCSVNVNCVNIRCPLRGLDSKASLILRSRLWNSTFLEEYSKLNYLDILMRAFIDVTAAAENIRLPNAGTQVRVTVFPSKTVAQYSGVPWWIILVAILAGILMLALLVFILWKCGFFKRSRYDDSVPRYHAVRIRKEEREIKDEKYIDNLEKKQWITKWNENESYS
Sequence of Integrin α6β1 (P05556 21-798): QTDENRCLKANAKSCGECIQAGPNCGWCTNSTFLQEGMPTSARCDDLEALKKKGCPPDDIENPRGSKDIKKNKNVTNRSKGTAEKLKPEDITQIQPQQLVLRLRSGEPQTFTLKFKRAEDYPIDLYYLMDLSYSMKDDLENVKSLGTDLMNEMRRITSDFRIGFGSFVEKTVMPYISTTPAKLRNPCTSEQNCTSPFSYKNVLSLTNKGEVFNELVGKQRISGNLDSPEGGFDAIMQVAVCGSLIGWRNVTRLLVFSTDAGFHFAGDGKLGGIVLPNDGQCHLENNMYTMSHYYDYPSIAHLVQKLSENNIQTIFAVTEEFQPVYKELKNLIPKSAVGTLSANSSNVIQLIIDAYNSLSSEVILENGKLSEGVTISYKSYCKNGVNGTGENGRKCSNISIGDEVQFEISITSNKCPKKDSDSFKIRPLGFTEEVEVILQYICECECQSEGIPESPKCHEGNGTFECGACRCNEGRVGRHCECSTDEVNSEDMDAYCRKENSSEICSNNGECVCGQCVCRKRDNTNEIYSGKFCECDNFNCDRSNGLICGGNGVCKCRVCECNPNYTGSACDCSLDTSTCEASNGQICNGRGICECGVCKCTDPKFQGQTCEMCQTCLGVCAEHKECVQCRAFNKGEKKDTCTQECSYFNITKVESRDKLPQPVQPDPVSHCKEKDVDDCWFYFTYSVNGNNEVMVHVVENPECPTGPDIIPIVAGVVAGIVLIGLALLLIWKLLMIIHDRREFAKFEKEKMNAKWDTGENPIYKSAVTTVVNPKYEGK

[8] = tested on: phosphorylated myosin light chain (P-MLC); experiment: Western blot of phosphorylated myosin light chain; type: cell-based, human; conditions: one and six hours after plating
Experimental: HS 181 cells were trypsinized into single cell suspension as described above. For inhibition experiments, the cells were kept in O3 medium with blocking antibodies or pathway inhibitors for 30 minutes and then 450K cells were plated on 35 mm dishes precoated with the appropriate matrix coating. For other experiments, same number of cells was plated directly after trypsinization. […] After two washings in ice-cold PBS, the plates with cells were snap frozen in liquid nitrogen and stored at −80° C. To prepare samples for western blots and ELISA, the plates were slowly thawed and kept on ice with 100-150 μl of lysis buffer (50 mM Tris-HCl, pH7.5, 150 mM NaCl, 0.5% deoxycholate, 0.5% SDS, 1% Triton X-100, 1% Igepal, Complete™ (Roche) and Phospho-Stop™ (Roche)) on top. Then, the cells were scraped, pipetted and sheared through a 27G ¾″ needle. After that, the cell pellets were clarified by centrifugation at 16,100 rcf for 15 minutes at 4° C. For western blots, 4-12% gradient gels were used for SDS electrophoresis and the proteins were transferred to PVDF membranes. The membrane was hybridized with the antibody of interest according to the manufacturer's instructions. Chemoluminescent HRP-substrate from Amersham Biosciences was used for visualization. For the densitometry analysis the films were scanned at 2,400 dpi and analyzed by the Chemilmager5500 program (1D-Multi Line densitometry mode). […]

[9] = tested on: hES cells; experiment: Cell survival assay, 24 hours (Example 2); type: cell-based, human; conditions: for survival after 24 hours: dissociated hES cells; for survival 24 hours after plating: single cell suspension, O3 medium, absence of ROCK inhibitor
Experimental: (§3) The survival assay was performed as described for the cell adhesion assay above, except that the cells were left in the cell incubator for 24 hours. For inhibition of survival assay, the cells were kept in a medium with function blocking antibodies at the concentrations recommended by the manufacturer or pathway inhibitors at concentrations indicated in the text for 30 minutes, and then plated on the coated dishes. All the experiments were performed in quadruplicate.
Pluripotent hES cells express α1, α5, β1, β2 and γ1 laminin chains. To compare the adhesion and clonal survival of hES cells plated from single cell suspension to different coating substrata, hES cells growing as monolayers on LN-511 or as clusters on a feeder layer were trypsinized into single cell suspension in O3 medium and plated on cell culture dishes coated with Matrigel, LN-111, LN-511, LN-521 or a mixture of LN-511 and LN-521, in the absence or presence of a ROCK inhibitor (Y-27632) and analyzed after 24 hours.

[10] = tested on: hES cells; experiment: Inhibition of survival assay on LN-521; type: cell-based, human; conditions: medium contained bFGF
Experimental: as §3

[11] = tested on: PI3K/Akt and MEK1/Erk pathways; experiment: Western blot with antibodies to phospho-Akt / phospho-Erk; type: cell-based, human; conditions: cells collected one hour after plating on LN-521
Experimental: HS 181 cells were trypsinized into single cell suspension as described above. For inhibition experiments, the cells were kept in O3 medium with blocking antibodies or pathway inhibitors for 30 minutes and then 450K cells were plated on 35 mm dishes precoated with the appropriate matrix coating. For other experiments, same number of cells was plated directly after trypsinization. In all cases the cells were allowed to spread for 1 hour at 37° C., 5% CO2. After two washings in ice-cold PBS, the plates with cells were snap frozen in liquid nitrogen and stored at −80° C. To prepare samples for western blots and ELISA, the plates were slowly thawed and kept on ice with 100-150 μl of lysis buffer (50 mM Tris-HCl, pH7.5, 150 mM NaCl, 0.5% deoxycholate, 0.5% SDS, 1% Triton X-100, 1% Igepal, Complete™ (Roche) and Phospho-Stop™ (Roche)) on top. Then, the cells were scraped, pipetted and sheared through a 27G ¾″ needle. After that, the cell pellets were clarified by centrifugation at 16,100 rcf for 15 minutes at 4° C. For western blots, 4-12% gradient gels were used for SDS electrophoresis and the proteins were transferred to PVDF membranes. The membrane was hybridized with the antibody of interest according to the manufacturer's instructions. […] For the densitometry analysis the films were scanned at 2,400 dpi and analyzed by the Chemilmager5500 program (1D-Multi Line densitometry mode). […]

[12] = tested on: hES cells; experiment: Clonal survival of individualized hES cells (Example 4); type: cell-based, human; conditions: mTeSR1 medium, 250 cells per cm^2, 5 days, alkaline phosphatase staining
Experimental: hES cells were plated in mTeSR1 medium on different coatings at a density of 250 cells per cm^2 and monitored after 5 days in culture using an alkaline phosphatase staining kit.
Next, combinations of laminin-521 and E-Cadherin were tested to determine whether the combinations could sustain clonal survival of the cells. Fixed amounts of laminin-521 were used for the cell culture dish coating in combination with titrated E-Cadherin.
Additional tests were performed to test the effects of various modifications to the mTeSR1 medium. A mixture of E-Cadherin to laminin-521 in a ratio of about 1:10 w/w was used to coat the plates. […] Time-lapse photography of the cells confirmed that laminin-521/E-Cadherin coatings facilitated cell survival through proliferation of the single cells, not through the aggregation of different cells.

Which “duration of self-renewal of mouse ES cells” value [1] does the source give for “LN-511: human recombinant laminin-511 coating protein” here?
The value was “over 5 months”.

And the “pluripotency of human ES cells grown over 3 months” value [2]?
The value was “maintain pluripotency”.

What about the “adhesion of human ES cells at 1 hour” value [3] of the same molecule?
The value was “roughly the same”.

What about the “cells remaining attached / surviving 24 hours after plating” value [4] of the same molecule?
Its value is “at a less extent”.

And the “spreading of the cells after one hour compared with Matrigel or LN-111” value [5]?
The value was “clearly better”.

What about the “survival after one day in culture” value [6] of the same molecule?
Its value is “in most cases”.

What about the “binding affinity of integrin α6β1 compared with LN-111” value [7] of the same molecule?
Its value is “higher”.

And the “phosphorylation of MLC compared with cells on Matrigel and LN-111” value [8]?
Its value is “even higher”.

And the “survival after 24 hours” value [9]?
Its value is “very few”.

And the “survival 24 hours after plating” value [9]?
The value was “did so as single cells”.

With `C[C@@H](N)[C@H]1CC[C@H](C(=O)Nc2ccncc2)CC1` [Y-27632, reference compound] as the molecule, how does the “cells remaining attached after one day” value ([4]; O3 medium treated with ROCK inhibitor Y-27632, 5 coatings) read?
The value was “remained attached on all 5 coatings”.

And the “survival 24 hours after plating in the presence of ROCK inhibitor” value ([9]; Matrigel, LN-111, LN-511, LN-521 or mixture coatings)?
Its value is “survived on all surfaces”.

For “LN-121: human recombinant laminin with α1, β2 and γ1 chains from triple-transfected HEK293 cells”, which “survival 24 hours after plating” value [9] is on record?
The value was “failed to survive”.

Which “survival 24 hours after plating” value [9] does the source give for “human recombinant LN-111: human recombinant laminin with α1, β1 and γ1 chains from triple-transfected HEK293 cells” here?
The value was “failed to survive”.

With “LN-111: mouse laminin-111 (Invitrogen), indicated as LN-111 if not otherwise stated” as the molecule, how does the “cells remaining attached / surviving 24 hours after plating” value [4] read?
The value was “almost no cells remained attached”.

And the “survival after 24 hours” value [9]?
Its value is “almost no cells had survived”.

And the “survival 24 hours after plating” value [9]?
Its value is “did not survive”.

Which results are given for `COc1cccc(-c2cc(=O)c3ccccc3o2)c1N` [PD 98059]?
hES cell survival 24 hours after plating on LN-521 with pathway inhibitor [10]: did not affect the survival that severely; efficacy of inhibitor treatment by western blot [11]: confirmed

B1: E-Cadherin: epithelial-cadherin used as cell culture dish coating (protein, UniProt P12830 155-882, looked up)
Cadherin-1: DWVIPPISCPENEKGPFPKNLVQIKSNKDKEGKVFYSITGQGADTPPVGVFIIERETGWLKVTEPLDRERIATYTLFSHAVSSNGNAVEDPMEILITVTDQNDNKPEFTQEVFKGSVMEGALPGTSVMEVTATDADDDVNTYNAAIAYTILSQDPELPDKNMFTINRNTGVISVVTTGLDRESFPTYTLVVQAADLQGEGLSTTATAVITVTDTNDNPPIFNPTTYKGQVPENEANVVITTLKVTDADAPNTPAWEAVYTILNDDGGQFVVTTNPVNNDGILKTAKGLDFEAKQQYILHVAVTNVVPFEVSLTTSTATVTVDVLDVNEAPIFVPPEKRVEVSEDFGVGQEITSYTAQEPDTFMEQKITYRIWRDTANWLEINPDTGAISTRAELDREDFEHVKNSTYTALIIATDNGSPVATGTGTLLLILSDVNDNAPIPEPRTIFFCERNPKPQVINIIDADLPPNTSPFTAELTHGASANWTIQYNDPTQESIILKPKMALEVGDYKINLKLMDNQNKDQVTTLEVSVCDCEGAAGVCRKAQPVEAGLQIPAILGILGGILALLILILLLLLFLRRRAVVKEPLLPPEDDTRDNVYYYDEEGGGEEDQDFDLSQLHRGLDARPEVTRNDVAPTLMSVPRYLPRPANPDEIGNFIDENLKAADTDPTAPPYDSLLVFDYEGSGSEAASLSSLNSSESDKDQDYDYLNEWGNRFKKLADMYGGGEDD
Which “clonal survival of individualized hES cells” value [12] does the source give for B1 here?
The value was “Neither laminin-521 nor E-Cadherin alone permitted efficient clonal survival”.
